Literature values in patent US5788978A, “Injectable pulsatile ivermectin composition” (priority 1996, dated 1998).

Tests used:
parasites = details: in vivo

In the case of ivermectin, the “minimum efficiency level in serum” value (parasites) is listed as 2 to 5 nanogrammes per milliliter of serum and the “solubility in acqueous media” value is listed as “insoluble”.
